The numbers were not newly measured in patent US20030216635A1, “Method and system for monitoring pancreatic pathologies” (priority 2000, published 2003), which cites them from elsewhere.

Each structure is given as a SMILES string.

For this series the following is noted: value substituted into equation 1.3; set up at 4.7 Tesla.

Take `O=C([O-])CN(CCN(CC(=O)[O-])CC(=O)O)CCN(CC(=O)[O-])CC(=O)O.[Gd+3]` [GdDTPA, gadolinium-diethylenetriamine-pentaacetic-acid]: the “Relaxivity constant R” value is listed as 4.3 mM^−1 sec ^−1.
